Values joined by “and” are separate entries in the source; they are usually repeats but may differ in a detail not shown here. Identical values can stand only once.
Test: xn = mol fraction of the nth substance listed

CCCCCCC + CCCO
Settings	viscosity
293.15 K, 101 kPa, x1 = 0.102	1.641 mPa·s
293.15 K, 101 kPa, x1 = 0.2018	1.291 mPa·s
293.15 K, 101 kPa, x1 = 0.299	1.052 mPa·s
293.15 K, 101 kPa, x1 = 0.4005	0.8426 mPa·s
293.15 K, 101 kPa, x1 = 0.5017	0.6995 mPa·s
293.15 K, 101 kPa, x1 = 0.6033	0.5899 mPa·s
293.15 K, 101 kPa, x1 = 0.7025	0.5126 mPa·s
293.15 K, 101 kPa, x1 = 0.801	0.4793 mPa·s
293.15 K, 101 kPa, x1 = 0.8918	0.4475 mPa·s
298.15 K, 100 kPa, x1 = 0.0569	1.654 mPa·s
298.15 K, 100 kPa, x1 = 0.1025	1.453 mPa·s
298.15 K, 100 kPa, x1 = 0.1996	1.138 mPa·s
298.15 K, 100 kPa, x1 = 0.3052	0.9066 mPa·s
298.15 K, 100 kPa, x1 = 0.4045	0.75 mPa·s
298.15 K, 100 kPa, x1 = 0.5038	0.6265 mPa·s
298.15 K, 100 kPa, x1 = 0.6039	0.5366 mPa·s
298.15 K, 100 kPa, x1 = 0.7066	0.4713 mPa·s
298.15 K, 100 kPa, x1 = 0.8001	0.4307 mPa·s
298.15 K, 100 kPa, x1 = 0.8488	0.4168 mPa·s
298.15 K, 100 kPa, x1 = 0.9551	0.4008 mPa·s
298.15 K, 100 kPa, x2 = 0.1648	0.4406 mPa·s
298.15 K, 100 kPa, x2 = 0.3402	0.5464 mPa·s
298.15 K, 100 kPa, x2 = 0.5002	0.7014 mPa·s
298.15 K, 100 kPa, x2 = 0.6602	0.9498 mPa·s
298.15 K, 100 kPa, x2 = 0.8383	1.294 mPa·s
298.15 K, 101 kPa, x1 = 0.0164	1.804 mPa·s
298.15 K, 101 kPa, x1 = 0.102	1.477 mPa·s
298.15 K, 101 kPa, x1 = 0.2018	1.166 mPa·s
298.15 K, 101 kPa, x1 = 0.299	0.9499 mPa·s
298.15 K, 101 kPa, x1 = 0.4005	0.7687 mPa·s
298.15 K, 101 kPa, x1 = 0.5017	0.6453 mPa·s
298.15 K, 101 kPa, x1 = 0.6033	0.5511 mPa·s
298.15 K, 101 kPa, x1 = 0.7025	0.4886 mPa·s
298.15 K, 101 kPa, x1 = 0.801	0.4419 mPa·s
298.15 K, 101 kPa, x1 = 0.8918	0.4174 mPa·s
298.15 K, 101 kPa, x2 = 0.0584	0.39 mPa·s
298.15 K, 101 kPa, x2 = 0.1192	0.408 mPa·s
298.15 K, 101 kPa, x2 = 0.1482	0.416 mPa·s
298.15 K, 101 kPa, x2 = 0.2647	0.454 mPa·s
298.15 K, 101 kPa, x2 = 0.3436	0.489 mPa·s
298.15 K, 101 kPa, x2 = 0.4121	0.53 mPa·s
298.15 K, 101 kPa, x2 = 0.5026	0.606 mPa·s
298.15 K, 101 kPa, x2 = 0.5659	0.679 mPa·s
298.15 K, 101 kPa, x2 = 0.654	0.811 mPa·s
298.15 K, 101 kPa, x2 = 0.6877	0.872 mPa·s
298.15 K, 101 kPa, x2 = 0.7447	0.994 mPa·s
298.15 K, 101 kPa, x2 = 0.8298	1.222 mPa·s
298.15 K, 101.33 kPa, x1 = 0.0127	1.873 mPa·s
298.15 K, 101.33 kPa, x2 = 0.0468	0.393 mPa·s
298.15 K, 101.33 kPa, x2 = 0.0919	0.409 mPa·s
298.15 K, 101.33 kPa, x2 = 0.0989	0.403 mPa·s
298.15 K, 101.33 kPa, x2 = 0.2079	0.4331 mPa·s
298.15 K, 101.33 kPa, x2 = 0.2269	0.46 mPa·s
298.15 K, 101.33 kPa, x2 = 0.2621	0.454 mPa·s
298.15 K, 101.33 kPa, x2 = 0.34	0.52 mPa·s
298.15 K, 101.33 kPa, x2 = 0.362	0.4992 mPa·s
298.15 K, 101.33 kPa, x2 = 0.4038	0.571 mPa·s
298.15 K, 101.33 kPa, x2 = 0.4569	0.576 mPa·s
298.15 K, 101.33 kPa, x2 = 0.521	0.682 mPa·s
298.15 K, 101.33 kPa, x2 = 0.5667	0.69 mPa·s
298.15 K, 101.33 kPa, x2 = 0.598	0.776 mPa·s
298.15 K, 101.33 kPa, x2 = 0.6616	0.876 mPa·s
298.15 K, 101.33 kPa, x2 = 0.6636	0.832 mPa·s
298.15 K, 101.33 kPa, x2 = 0.7478	0.999 mPa·s
298.15 K, 101.33 kPa, x2 = 0.7849	1.154 mPa·s
298.15 K, 101.33 kPa, x2 = 0.8202	1.187 mPa·s
298.15 K, 101.33 kPa, x2 = 0.879	1.447 mPa·s
298.15 K, 101.33 kPa, x2 = 0.9458	1.659 mPa·s
298.15 K, 101.33 kPa, x2 = 0.967	1.811 mPa·s
303.15 K, 101 kPa, x1 = 0.0164	1.609 mPa·s
303.15 K, 101 kPa, x1 = 0.102	1.319 mPa·s
303.15 K, 101 kPa, x1 = 0.2018	1.047 mPa·s
303.15 K, 101 kPa, x1 = 0.299	0.8669 mPa·s
303.15 K, 101 kPa, x1 = 0.4005	0.7025 mPa·s
303.15 K, 101 kPa, x1 = 0.5017	0.5949 mPa·s
303.15 K, 101 kPa, x1 = 0.6033	0.5056 mPa·s
303.15 K, 101 kPa, x1 = 0.7025	0.4543 mPa·s
303.15 K, 101 kPa, x1 = 0.801	0.4254 mPa·s
303.15 K, 101 kPa, x1 = 0.8918	0.3943 mPa·s
303.15 K, 101 kPa, x2 = 0.0637	0.364 mPa·s and 0.344 mPa·s
303.15 K, 101 kPa, x2 = 0.1192	0.374 mPa·s
303.15 K, 101 kPa, x2 = 0.2374	0.415 mPa·s
303.15 K, 101 kPa, x2 = 0.3198	0.444 mPa·s
303.15 K, 101 kPa, x2 = 0.4121	0.496 mPa·s
303.15 K, 101 kPa, x2 = 0.5026	0.569 mPa·s
303.15 K, 101 kPa, x2 = 0.6029	0.674 mPa·s
303.15 K, 101 kPa, x2 = 0.6539	0.742 mPa·s
303.15 K, 101 kPa, x2 = 0.6876	0.785 mPa·s
303.15 K, 101 kPa, x2 = 0.7445	0.889 mPa·s
303.15 K, 101 kPa, x2 = 0.7867	0.975 mPa·s
303.15 K, 101 kPa, x2 = 0.8298	1.096 mPa·s
303.15 K, 101 kPa, x2 = 0.884	1.23 mPa·s
303.15 K, 101 kPa, x2 = 0.9695	1.544 mPa·s
308.15 K, 101 kPa, x1 = 0.102	1.189 mPa·s
308.15 K, 101 kPa, x1 = 0.2018	0.9659 mPa·s
308.15 K, 101 kPa, x1 = 0.299	0.7776 mPa·s
308.15 K, 101 kPa, x1 = 0.4005	0.6444 mPa·s
308.15 K, 101 kPa, x1 = 0.5017	0.5454 mPa·s
308.15 K, 101 kPa, x1 = 0.6033	0.4781 mPa·s
308.15 K, 101 kPa, x1 = 0.7025	0.4308 mPa·s
308.15 K, 101 kPa, x1 = 0.801	0.3988 mPa·s
308.15 K, 101 kPa, x1 = 0.8918	0.3783 mPa·s
308.15 K, 101 kPa, x2 = 0.1596	0.36 mPa·s
308.15 K, 101 kPa, x2 = 0.2647	0.399 mPa·s
308.15 K, 101 kPa, x2 = 0.3436	0.435 mPa·s
308.15 K, 101 kPa, x2 = 0.4385	0.489 mPa·s
308.15 K, 101 kPa, x2 = 0.5026	0.532 mPa·s
308.15 K, 101 kPa, x2 = 0.5659	0.584 mPa·s
308.15 K, 101 kPa, x2 = 0.6029	0.619 mPa·s
308.15 K, 101 kPa, x2 = 0.6877	0.728 mPa·s
308.15 K, 101 kPa, x2 = 0.7447	0.817 mPa·s
308.15 K, 101 kPa, x2 = 0.7867	0.909 mPa·s
308.15 K, 101 kPa, x2 = 0.884	1.158 mPa·s
308.15 K, 101 kPa, x2 = 0.9695	1.444 mPa·s
308.15 K, 101.33 kPa, x1 = 0.0127	1.506 mPa·s
308.15 K, 101.33 kPa, x2 = 0.0468	0.3551 mPa·s
308.15 K, 101.33 kPa, x2 = 0.0989	0.36 mPa·s
308.15 K, 101.33 kPa, x2 = 0.2079	0.3821 mPa·s
308.15 K, 101.33 kPa, x2 = 0.2621	0.4018 mPa·s
308.15 K, 101.33 kPa, x2 = 0.362	0.4432 mPa·s
308.15 K, 101.33 kPa, x2 = 0.4569	0.492 mPa·s
308.15 K, 101.33 kPa, x2 = 0.5667	0.5902 mPa·s
308.15 K, 101.33 kPa, x2 = 0.6636	0.7 mPa·s
308.15 K, 101.33 kPa, x2 = 0.7478	0.8319 mPa·s
308.15 K, 101.33 kPa, x2 = 0.8202	0.98 mPa·s
308.15 K, 101.33 kPa, x2 = 0.9458	1.347 mPa·s
